Data on 11 compounds can be found in paper PMC3220188 (Nature Communications, 2010).

Usually CC50 stands for the concentration that lowers cell viability or growth by half. A low value points to greater toxicity to the cells. Usually AUC stands for the area under the concentration-time curve, a measure of exposure. Read a low AUC as less exposure. What is called Cmax is the peak of the concentration-time curve. What is called Tmax is the time at which the peak concentration occurs. In general, bioavailability refers to the share of a dose that reaches the circulation, judged against a reference dose that is usually intravenous. Low values mean poor availability, high ones good availability. One may read the half-life as the time in which the quantity being followed falls by half. A low value points to rapid decline.

Each structure is given as a SMILES string. Values after ≈ are worked out from the molar mass of the structure shown. Read-outs that look alike come from different tables or passages of the source. Marks after values point to notes of the source that are not given here.

Data set [1] deals with M. tuberculosis H37Rv. In words: microbe, parasite or virus in culture. In kind it is cell-based, Mycobacterium tuberculosis.
The nature of the next data set: in vitro. Type of data set: cell-based. The following applies: human.
The next data set is described as follows: in vivo. The following applies: for fAUC/MIC / fT>MIC: corrected for plasma protein binding; for T>MIC: percentage of dosing interval with plasma levels above MIC. In kind it is in vivo, CD-1 female mice.
In the next data set the test system is MTB pMV262-rv0577. In words: microbe, parasite or virus in culture. The following applies: Mycobacterium tuberculosis, read-out: MTB pMV262-rv0577 MIC50. In kind it is cell-based.
For data set [2], the system named is M. tuberculosis H37Rv. Type of data set: cell-based, Mycobacterium tuberculosis. The following applies: for ATP pool depleted: in the presence of glycerol, 24 h after treatment; for very rapid ATP depletion in M. tuberculosis: reference compounds, 24 h.
Data set [3] concerns M. tuberculosis H37Rv. In words: Metabolomic profiling by LC/MS. The following applies: 24 h after treatment, in the presence of glycerol. Type of data set: cell-based, Mycobacterium tuberculosis.
In data set [4] the test system is Rv0577, Rv0911, Rv2298 and lldD2. In kind it is binding, M. bovis BCG.
Where [5] appears, read: Mycobacterium tuberculosis, H37RV.
[6] abbreviates: Mycobacterium tuberculosis, H37RV, read-out: MTB H37Rv MIC50.
Setting [7] is: female, CD-1, mouse, in vivo, po, 25 mg/kg.
[8] abbreviates: mouse, single oral dose 25 mg kg^−1, lung.
Setting [9] is: female, CD-1, mouse, in vivo, po, 100 mg/kg.

In the data set on M. tuberculosis H37Rv [1] (setting [5]), `Cc1ccc(NC(=O)c2ccccc2)cc1Nc1nccn1-c1cc(NC2CCCC2)ncn1` [Compound 1, N-(3-(1-(6-(Cyclopentylamino)pyrimidin-4-yl)-1H-imidazol-2-ylamino)-4-methylphenyl)benzamide] came in with an MIC50 of 0.75 ± 0.32 µM (≈ 0.34 µg/mL). Further, the MIC50 in the data set with M. tuberculosis H37Rv [1] (setting [6]) amounted to 0.35 ± 0.1 µM (≈ 0.159 µg/mL). In “in vitro”, this compound came in with a cytotoxic concentration (CC50) of more than 50 µM. Further, in the data set “in vivo” (setting [7]), the AUC amounted to 23400 ng·h/mL, the Cmax stood at 4000 ng/mL, the Tmax turned out to be 1 h and the bioavailability was found to be 100%. Besides, the half-life in “in vivo” (setting [7]) was 2.5 h. In addition, in “in vivo” (mouse, 25 mg kg^−1, lung), the “Lung AUC/MIC” value is reported as 31.2 and the “Lung T>MIC” value was found to be 32. In “in vivo” (mouse, 25 mg kg^−1), the fAUC/MIC worked out at 8.6, the “fT>MIC” value is 10% and the “T>MIC” value worked out at 42%. In addition, the “Lung AUC” value in the data set “in vivo” (setting [8]) came out at 10.2 µg·h/g. Also, the MIC50 with MTB pMV262-rv0577 turned out to be 2.32 ± 0.4 µM (≈ 1.05 µg/mL). In the data set on M. tuberculosis H37Rv [2], the ATP pool depleted is listed as more than 75%. Moreover, the “accumulation of glycerol phosphate” value with M. tuberculosis H37Rv [3] is on record as “significant accumulation”.

For `c1ccc(-c2nc3cc(Nc4nccn4-c4cc(NC5CCCC5)ncn4)ccc3[nH]2)cc1` [Compound 2, N-(1-(6-(Cyclopentylamino)pyrimidin-4-yl)-1H-imidazol-2-yl)-2-phenyl-1H-benzo[d]imidazol-5-amine], the MIC50 in the data set with M. tuberculosis H37Rv [1] (setting [5]) was found to be 0.57 ± 0.23 µM (≈ 0.249 µg/mL). For the same compound, in the data set on M. tuberculosis H37Rv [1] (setting [6]), the MIC50 was 0.34 ± 0.11 µM (≈ 0.148 µg/mL). In “in vitro”, the cytotoxic concentration (CC50) is more than 50 µM. In addition, in the data set “in vivo” (setting [7]), the exposure (AUC) stood at 10600 ng·h/mL, the Cmax is 3800 ng/mL, the time of peak concentration (Tmax) amounted to 0.5 h and the bioavailability was 100%. For the same compound, the half-life in the data set “in vivo” (setting [7]) is 2.2 h. Besides, in “in vivo” (mouse, 25 mg kg^−1, lung), the “Lung AUC/MIC” value is recorded as 44.8 and the “Lung T>MIC” value stood at 54. Moreover, in the data set “in vivo” (mouse, 25 mg kg^−1), the fAUC/MIC was determined as 17.8, the “fT>MIC” value is reported as 26% and the “T>MIC” value stood at 38%. Besides, the “Lung AUC” value in “in vivo” (setting [8]) was 10.7 µg·h/g. Further, in the data set on MTB pMV262-rv0577, the MIC50 was 3.53 ± 1.13 µM (≈ 1.54 µg/mL). Also, the ATP pool depleted in the data set on M. tuberculosis H37Rv [2] is listed as more than 75%. For the same compound, the “accumulation of glycerol phosphate” value in the data set on M. tuberculosis H37Rv [3] is “significant accumulation”.

Regarding `Cc1ccc(C(=O)N2CCOCC2)cc1Nc1nccn1-c1cc(NC2CC2)ncn1` [Compound 3, (3-(1-(6-(Cyclopropylamino)pyrimidin-4-yl)-1H-imidazol-2-ylamino)-4-methylphenyl)(morpholino)methanone], the MIC50 against M. tuberculosis H37Rv [1] (setting [5]) amounted to 0.036 ± 0.04 µM (≈ 0.0151 µg/mL). Besides, the CC50 in “in vitro” was more than 50 µM. Besides, in the data set “in vivo” (setting [7]), the AUC turned out to be 12400 ng·h/mL, the Cmax was 3000 ng/mL, the Tmax is 0.5 h and the bioavailability is 50%. Moreover, in “in vivo” (setting [7]), the half-life was 2.3 h. Further, in the data set “in vivo” (setting [9]), the AUC is 59300 ng·h/mL, the Cmax worked out at 8900 ng/mL, the Tmax was determined as 0.5 h and the bioavailability was 50%. This compound had a half-life in the data set “in vivo” (setting [9]) of 3 h. Also, in the data set “in vivo” (mouse, 25 mg kg^−1, lung), the “Lung AUC/MIC” value stood at 1070.6 and the “Lung T>MIC” value is 100. For the same compound, in “in vivo” (mouse, 25 mg kg^−1), the fAUC/MIC is recorded as 113.7, the “fT>MIC” value came out at 47% and the “T>MIC” value came out at 73%. Moreover, in the data set “in vivo” (mouse, 100 mg kg^−1, lung), the “Lung T>MIC” value was determined as 100. For the same compound, the “Lung AUC/MIC” value in the data set “in vivo” (mouse, 100 mg kg^−1, lung, extrapolated assuming lung exposure proportional to dose) was 4654.8 ^*. In “in vivo” (mouse, 100 mg kg^−1), the fAUC/MIC is 544.6, the “fT>MIC” value was determined as 82% and the “T>MIC” value is reported as 100%. The exposure versus dose result in the data set “in vivo” (mouse, 25 and 100 mg kg^−1) is listed as “proportional to dose”. Besides, in the data set “in vivo” (setting [8]), the “Lung AUC” value stood at 17.5 µg·h/g.

Turning to `Cc1ccc(NC(=O)c2cccc(NCCN)c2)cc1Nc1nccn1-c1cc(NC2CC2)ncn1` [Compound 4, 3-(2-Aminoethylamino)-N-(3-(1-(6-(cyclopropylamino)pyrimidin-4-yl)-1H-imidazol-2-ylamino)-4-methylphenyl)benzamide], in the data set with M. tuberculosis H37Rv [1] (setting [5]), the MIC50 came to 0.21 ± 0.01 µM (≈ 0.102 µg/mL). Moreover, the “binding of candidate proteins to sepharose-linked 4 in the presence of free 4” value in data set [4] is reported as “dramatically decreased”.

In the data set on M. tuberculosis H37Rv [1], `O=C(CO)COP(=O)(O)O` [DHAP, dihydroxyacetone phosphate] showed an MIC50 of 1200 µM.

For `CC[C@@H](CO)NCCN[C@@H](CC)CO` [EMB, ethambutol, reference compound], in the data set “in vivo” (setting [9]), the AUC was determined as 8000 ng·h/mL, the Cmax is 2500 ng/mL, the Tmax turned out to be 0.5 h and the half-life was 1.8 h. For the same compound, in “in vivo” (mouse, 100 mg kg^−1, lung), the “Lung AUC” value was found to be 145 µg·h/g and the “Lung AUC/MIC” value is on record as 247. In the data set “in vivo” (mouse, 100 mg kg^−1), the fAUC/MIC came out at 10, the “fT>MIC” value is 15% and the “T>MIC” value turned out to be 17%.

With `NNC(=O)c1ccncc1` [Isoniazid, isoniazid, reference compound], in the data set with M. tuberculosis H37Rv [1], the “activity against M. tuberculosis in the absence of glycerol in the culture medium” value (“activity against M. tuberculosis” below) was “comparable”. For the same compound, in the data set on M. tuberculosis H37Rv [1] (setting [6]), the MIC50 was 0.42 ± 0.03 µM (≈ 0.0576 µg/mL). In the data set “in vivo” (setting [7]), this compound showed an AUC of 52000 ng·h/mL and a Cmax of 28000 ng/mL. Also, in “in vivo” (mouse, 25 mg kg^−1), the “fT>MIC” value stood at 62% and the “T>MIC” value amounted to 68%. For the same compound, the Tmax in “in vivo” (mouse, single oral dose 25 mg kg^−1, plasma) came out at 0.25 h. The MIC50 in the data set on MTB pMV262-rv0577 amounted to 0.37 ± 0.05 µM (≈ 0.0507 µg/mL).

With `[H]/N=C(/N)N[C@H]1[C@H](O)[C@@H](O)[C@H](O[C@@H]2O[C@@H](C)[C@](O)(C=O)[C@H]2O[C@@H]2O[C@@H](CO)[C@H](O)[C@@H](O)[C@@H]2NC)[C@@H](N/C(N)=N\[H])[C@@H]1O` [Streptomycin, streptomycin, reference compound], the “activity against M. tuberculosis” value with M. tuberculosis H37Rv [1] is “comparable”. Also, the figures for the MIC50 with M. tuberculosis H37Rv [1] (setting [6]) and with MTB pMV262-rv0577 were 0.18 ± 0.02 µM (≈ 0.105 µg/mL) and 0.12 ± 0.01 µM (≈ 0.0698 µg/mL), respectively. In addition, in the data set with M. tuberculosis H37Rv [2], the “very rapid ATP depletion in M. tuberculosis” value was “not observed”.

In the data set on M. tuberculosis H37Rv [1], `O=P(O)(O)OCC(O)CO` (centres unmarked) [glycerol phosphate] had an MIC50 of 12500 µM.

As to `CC(=O)C=O` [methylglyoxal], in the data set with M. tuberculosis H37Rv [1], the MIC50 worked out at 400 µM (≈ 28.8 µg/mL).

Take `COc1c(N2C[C@@H]3CCCN[C@@H]3C2)c(F)cc2c(=O)c(C(=O)O)cn(C3CC3)c12` [moxifloxacin, reference compound]: in the data set with M. tuberculosis H37Rv [1], the “activity against M. tuberculosis” value was “comparable”. The “very rapid ATP depletion in M. tuberculosis” value in the data set with M. tuberculosis H37Rv [2] is “not observed”.
